Earlier results, collected in patent US11583515B2, “Composition and method for rapidly inducing an endogenous ketosis” (priority 2015, dated 2023).

Key:
[1] = in vivo
muscle cells = details: with and without the presence of insulin or exercise
[2] = racemic mixture of R and S enantiomers, taken orally
[3] = test system: insulin signaling cascade; details: 600, 1200, and 1800 mg daily for four weeks; individuals with impaired insulin signaling cascades

## beta-hydroxybutyrate salts
Dawley rats; after four weeks of repeated daily ingestion
  effect on triglycerides or total cholesterol: no effect
Dawley rats; orally supplemented, 28 days
  effect on blood glucose numbers: improved
  effect to promote weight loss: no effect
Dawley rats; supplementation
  blood level of beta-hydroxybutyrate, acetoacetate, and acetone: increases

## [Cr] [Chromium]
[1]
  absorption, share of an ingested dose: 1-2%
  complete plasma clearance half-life: 8 to 12 h
Muscle cells
  rate of cellular glucose uptake: several times normal
Chromium containing supplements
  doses used without any reported adverse effects: up to 1000 mcg

## O=C(O)CCCCC1CCSS1 (racemic) [Alpha Lipoic acid, 1,2-dithiolane-3-pentanoic acid]
[2]
  bioavailability after absorption: ~30%
  complete plasma clearance: approximately three hours
  half-life: thirty minutes to one and one half hours
[3]
  improvement of effectiveness of the signaling cascade on glucose uptake and utilization: 25%
2014 study, treating peripheral neuropathy during pregnancy
  effect on mother or child: no harmful effect
Animal or human studies, various ranges of intake, large doses or extended use
  safety of supplementation: safe with no widespread serious or life-threatening reactions reported
